In ChEMBL document CHEMBL4334438, “Discovery of novel glycogen synthase kinase-3α inhibitors: Structure-based virtual screening, preliminary SAR and biological evaluation for treatment of acute myeloid leukemia” (Eur J Med Chem, 2019) one finds Activity and activity data, which are given here for two molecules.

Structures are written as SMILES.

In series [1] the test system is Serine/threonine-protein kinase Chk2 (Homo sapiens), O96017 [I157T]. Put plainly: Inhibition of recombinant human CHK2 I157T mutant (5 to end residues) assessed as residual activity at 1 uM using KKKVSRSGLYRSPSMPENLNRPR as substrate incubated for 40 mins in presence of [gamma-33ATP] by scintillation counting based radiometry assay relative to control.
Chain of Serine/threonine-protein kinase Chk2 (Homo sapiens), O96017 [I157T] (O96017 whole entry I157T): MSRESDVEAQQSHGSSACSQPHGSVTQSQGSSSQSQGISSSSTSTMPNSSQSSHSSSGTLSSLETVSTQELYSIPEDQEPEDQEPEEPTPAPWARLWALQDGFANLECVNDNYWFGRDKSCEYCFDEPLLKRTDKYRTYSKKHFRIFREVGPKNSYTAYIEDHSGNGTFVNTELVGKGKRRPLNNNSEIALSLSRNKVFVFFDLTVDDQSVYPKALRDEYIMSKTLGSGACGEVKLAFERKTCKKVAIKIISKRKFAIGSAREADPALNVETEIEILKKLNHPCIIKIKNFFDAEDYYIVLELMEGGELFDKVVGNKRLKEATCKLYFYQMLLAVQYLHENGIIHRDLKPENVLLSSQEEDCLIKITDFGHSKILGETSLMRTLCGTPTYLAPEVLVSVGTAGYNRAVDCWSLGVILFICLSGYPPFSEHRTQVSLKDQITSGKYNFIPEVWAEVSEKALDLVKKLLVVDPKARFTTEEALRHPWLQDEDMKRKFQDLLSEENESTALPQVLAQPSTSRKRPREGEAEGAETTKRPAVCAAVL
In series [2] the test system is Tyrosine-protein kinase ABL1 (Homo sapiens), P00519 [Y253F]. The series can be described thus: Inhibition of human ABL1 Y253F mutant (27 to end residues) assessed as residual activity at 1 uM using EAIYAAPFAKKK as substrate incubated for 40 mins in presence of [gamma-33ATP] by scintillation counting based radiometry assay relative to control.
For series [3], the target named is Ephrin type-A receptor 2 (Homo sapiens) (UniProt P29317). The series can be described thus: Inhibition of recombinant human EphA2 (596 to 900 residues) assessed as residual activity at 1 uM using poly(Glu, Tyr) 4:1 as substrate at 40 mins in presence of [gamma-33ATP] by scintillation counting based radiometry assay relative to control.
Chain of Ephrin type-A receptor 2 (Homo sapiens) (P29317 whole entry, the tested form may be a part): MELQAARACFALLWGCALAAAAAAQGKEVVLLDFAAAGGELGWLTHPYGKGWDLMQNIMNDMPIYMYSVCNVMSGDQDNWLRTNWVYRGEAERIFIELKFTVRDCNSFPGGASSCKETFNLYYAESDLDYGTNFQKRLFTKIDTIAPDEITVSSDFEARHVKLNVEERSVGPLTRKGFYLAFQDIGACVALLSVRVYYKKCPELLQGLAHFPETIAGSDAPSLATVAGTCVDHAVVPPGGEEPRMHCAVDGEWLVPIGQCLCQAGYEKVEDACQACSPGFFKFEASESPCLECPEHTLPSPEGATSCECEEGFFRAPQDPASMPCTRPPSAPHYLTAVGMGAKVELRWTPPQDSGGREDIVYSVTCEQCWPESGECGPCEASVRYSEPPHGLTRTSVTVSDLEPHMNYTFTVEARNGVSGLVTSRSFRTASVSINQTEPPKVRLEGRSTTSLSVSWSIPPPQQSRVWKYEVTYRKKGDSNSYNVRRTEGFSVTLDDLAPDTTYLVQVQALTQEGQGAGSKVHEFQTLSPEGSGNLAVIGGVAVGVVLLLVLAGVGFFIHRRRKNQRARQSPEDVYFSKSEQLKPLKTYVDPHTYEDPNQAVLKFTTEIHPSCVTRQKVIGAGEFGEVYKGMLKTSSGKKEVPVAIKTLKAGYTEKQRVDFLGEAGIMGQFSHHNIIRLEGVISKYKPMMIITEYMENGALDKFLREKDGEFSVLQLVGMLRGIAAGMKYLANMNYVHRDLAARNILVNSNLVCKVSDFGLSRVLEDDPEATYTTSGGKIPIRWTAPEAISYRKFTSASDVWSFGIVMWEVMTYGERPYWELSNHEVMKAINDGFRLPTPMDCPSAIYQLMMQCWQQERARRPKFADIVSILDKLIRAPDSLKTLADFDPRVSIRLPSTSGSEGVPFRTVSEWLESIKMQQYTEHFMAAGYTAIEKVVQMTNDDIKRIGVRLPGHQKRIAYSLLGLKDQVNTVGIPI
Series [4] has as its target Inhibitor of nuclear factor kappa-B kinase subunit alpha (Homo sapiens) (UniProt O15111). Put plainly: Inhibition of full length human IKKalpha assessed as residual activity at 1 uM using peptide as substrate after 40 mins by [gamma-33ATP] radiometric assay relative to control.
The target in series [5] is Calcium/calmodulin-dependent protein kinase type 1 (Homo sapiens) (UniProt Q14012). The series can be described thus: Inhibition of recombinant human CaMKIalpha (2 to end residues) assessed as residual activity at 1 uM […] incubated for 40 mins in presence of [gamma-33ATP] by scintillation counting based radiometry assay relative to control.
Chain of Calcium/calmodulin-dependent protein kinase type 1 (Homo sapiens) (Q14012 whole entry, looked up, the tested form may be a part): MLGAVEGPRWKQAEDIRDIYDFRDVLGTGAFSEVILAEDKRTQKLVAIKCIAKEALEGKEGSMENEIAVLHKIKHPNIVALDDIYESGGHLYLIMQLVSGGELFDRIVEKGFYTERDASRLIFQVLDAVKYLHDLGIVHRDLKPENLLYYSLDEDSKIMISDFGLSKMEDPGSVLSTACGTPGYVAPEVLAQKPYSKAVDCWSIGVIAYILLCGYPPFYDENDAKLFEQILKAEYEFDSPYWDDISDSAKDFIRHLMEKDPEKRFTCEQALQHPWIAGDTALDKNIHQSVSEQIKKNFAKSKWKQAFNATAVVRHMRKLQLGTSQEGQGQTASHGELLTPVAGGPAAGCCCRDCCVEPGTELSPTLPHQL
In series [6] the target is GSK-3beta (H350L mutant) (Homo sapiens, UniProt P49841, H350L). Put plainly: Inhibition of human GSK-3beta H350L mutant (2 to end residues) assessed as residual activity at 1 uM using phospho GS2 peptide as substrate after 40 mins by [gamma-33ATP] radiometric assay relative to control. The following applies: human GSK-3beta H350L mutant enzyme (residues 2 to end), probe phospho GS2 peptide, read-out: Activity.

Series [7] concerns the target Vascular endothelial growth factor receptor 1 (Homo sapiens) (UniProt P17948). Put plainly: Inhibition of recombinant human FLT1 (783 to end residues) assessed as residual activity at 1 uM using KKKSPGEYVNIEFG as substrate at 40 mins in presence of [gamma-33ATP] by scintillation counting based radiometry assay relative to control.
The target of series [8] is Cytoplasmic tyrosine-protein kinase BMX (Homo sapiens) (UniProt P51813). The series can be described thus: Inhibition of recombinant full length human BMX assessed as residual activity at 1 uM using poly(Glu, Tyr) 4:1 as substrate incubated for 40 mins in presence of [gamma-33ATP] by scintillation counting based radiometry assay relative to control.
Series [9] concerns PI3-kinase p110-alpha/p85-alpha (Homo sapiens), P27986+P42336 [E542K]. The series can be described thus: Inhibition of recombinant full-length human PI3K p110alpha E542K mutant/p85alpha assessed as residual activity at 1 uM assessed as residual activity at 1 uM using phosphatidylinositol-4, 5-bisphosphate as substrate incubated for 40 mins in presence of [gamma33P]ATP by scintillation counting based radiometry assay relative to control. Format: protein-complex assay.

Series [10] concerns Tyrosine-protein kinase ABL1 (Homo sapiens), P00519 [T315I]. Put plainly: Inhibition of human ABL1 T315I mutant (27 to end residues) assessed as residual activity at 1 uM using EAIYAAPFAKKK as substrate incubated for 40 mins in presence of [gamma-33ATP] by scintillation counting based radiometry assay relative to control.
Series [11] deals with TGF-beta receptor type-2 (Homo sapiens) (UniProt P37173). Put plainly: Inhibition of human TGFBR2 (188 to end residues) assessed as residual activity at 1 uM using myelin basic protein as substrate measured after 120 mins in presence of [gamma33P]ATP by scintillation counting method relative to control.
Series [12] deals with Receptor tyrosine-protein kinase erbB-4 (Homo sapiens) (UniProt Q15303). Put plainly: Inhibition of recombinant human ERBB4 (706 to 991 residues) assessed as residual activity at 1 uM using poly(Glu, Tyr) 4:1 as substrate at 40 mins in presence of [gamma-33ATP] by scintillation counting based radiometry assay relative to control.
In series [13] the target is G protein-coupled receptor kinase 6 (Homo sapiens) (UniProt P43250). The series can be described thus: Inhibition of recombinant full length human GRK6 assessed as residual activity at 1 uM using casein as substrate at 40 mins in presence of [gamma-33ATP] by scintillation counting based radiometry assay relative to control.
The target of series [14] is Protein kinase C gamma type (Homo sapiens) (UniProt P05129). The series can be described thus: Inhibition of recombinant full-length human PKCgamma assessed as residual activity at 1 uM using histone H1 as substrate measured after 40 mins in presence of [gamma33P]ATP by scintillation counting method relative to control.
Series [15] concerns the target Myotonin-protein kinase (Homo sapiens) (UniProt Q09013). The series can be described thus: Inhibition of recombinant human DMPK (1 to 549 residues) assessed as residual activity at 1 uM using KKSRGDYMTMQIG as substrate at 40 mins in presence of [gamma-33ATP] by scintillation counting based radiometry assay relative to control.
Series [16] relates to Serine/threonine-protein kinase A-Raf (Homo sapiens), P10398 [Y301D,Y302D]. Put plainly: Inhibition of recombinant human A-Raf Y301D/Y302D mutant (273 to end residues) assessed as residual activity at 1 uM using myelin basic protein as substrate incubated for 40 mins in presence of [gamma-33ATP] by scintillation counting based radiometry assay relative to control.
Series [17] concerns Phosphorylase b kinase gamma catalytic chain, liver/testis isoform (Homo sapiens), P15735 [F290L]. The series can be described thus: Inhibition of recombinant human PhKgamma2 F290L mutant (1 to 301 residues) assessed as residual activity at 1 uM using KKLNRTLSFAEPG as substrate measured after 40 mins in presence of [gamma33P]ATP by scintillation counting method relative to control.

In series [18] the target is Cyclin-dependent kinase 13/Cyclin-K (Homo sapiens) (UniProt Q14004+O75909). Put plainly: Inhibition of recombinant full length human CDK13/cyclinK assessed as residual activity at 1 uM using RSRSRSRSRSRSRSR as substrate incubated for 120 mins in presence of [gamma-33ATP] by scintillation counting based radiometry assay relative to control. The series is classed as protein-complex assay.
Chain of Cyclin-dependent kinase 13/Cyclin-K (Homo sapiens) (O75909 whole entry, looked up): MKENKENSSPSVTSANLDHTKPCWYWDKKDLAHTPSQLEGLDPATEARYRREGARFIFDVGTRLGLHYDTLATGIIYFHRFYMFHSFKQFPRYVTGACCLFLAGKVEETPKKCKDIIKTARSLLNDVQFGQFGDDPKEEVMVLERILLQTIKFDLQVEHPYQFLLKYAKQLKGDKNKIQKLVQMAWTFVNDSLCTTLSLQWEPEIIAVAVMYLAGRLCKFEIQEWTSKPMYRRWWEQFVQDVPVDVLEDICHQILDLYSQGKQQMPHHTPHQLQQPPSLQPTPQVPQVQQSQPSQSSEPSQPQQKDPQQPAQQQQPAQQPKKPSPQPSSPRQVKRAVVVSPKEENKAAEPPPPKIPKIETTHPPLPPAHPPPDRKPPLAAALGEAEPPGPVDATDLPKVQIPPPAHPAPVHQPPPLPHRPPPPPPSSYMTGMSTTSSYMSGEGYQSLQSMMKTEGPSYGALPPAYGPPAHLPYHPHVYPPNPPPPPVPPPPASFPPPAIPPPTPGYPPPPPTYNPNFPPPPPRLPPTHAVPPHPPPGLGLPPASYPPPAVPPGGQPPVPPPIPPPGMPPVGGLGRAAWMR
Chain of Cyclin-dependent kinase 13/Cyclin-K (Homo sapiens) (Q14004 whole entry, looked up): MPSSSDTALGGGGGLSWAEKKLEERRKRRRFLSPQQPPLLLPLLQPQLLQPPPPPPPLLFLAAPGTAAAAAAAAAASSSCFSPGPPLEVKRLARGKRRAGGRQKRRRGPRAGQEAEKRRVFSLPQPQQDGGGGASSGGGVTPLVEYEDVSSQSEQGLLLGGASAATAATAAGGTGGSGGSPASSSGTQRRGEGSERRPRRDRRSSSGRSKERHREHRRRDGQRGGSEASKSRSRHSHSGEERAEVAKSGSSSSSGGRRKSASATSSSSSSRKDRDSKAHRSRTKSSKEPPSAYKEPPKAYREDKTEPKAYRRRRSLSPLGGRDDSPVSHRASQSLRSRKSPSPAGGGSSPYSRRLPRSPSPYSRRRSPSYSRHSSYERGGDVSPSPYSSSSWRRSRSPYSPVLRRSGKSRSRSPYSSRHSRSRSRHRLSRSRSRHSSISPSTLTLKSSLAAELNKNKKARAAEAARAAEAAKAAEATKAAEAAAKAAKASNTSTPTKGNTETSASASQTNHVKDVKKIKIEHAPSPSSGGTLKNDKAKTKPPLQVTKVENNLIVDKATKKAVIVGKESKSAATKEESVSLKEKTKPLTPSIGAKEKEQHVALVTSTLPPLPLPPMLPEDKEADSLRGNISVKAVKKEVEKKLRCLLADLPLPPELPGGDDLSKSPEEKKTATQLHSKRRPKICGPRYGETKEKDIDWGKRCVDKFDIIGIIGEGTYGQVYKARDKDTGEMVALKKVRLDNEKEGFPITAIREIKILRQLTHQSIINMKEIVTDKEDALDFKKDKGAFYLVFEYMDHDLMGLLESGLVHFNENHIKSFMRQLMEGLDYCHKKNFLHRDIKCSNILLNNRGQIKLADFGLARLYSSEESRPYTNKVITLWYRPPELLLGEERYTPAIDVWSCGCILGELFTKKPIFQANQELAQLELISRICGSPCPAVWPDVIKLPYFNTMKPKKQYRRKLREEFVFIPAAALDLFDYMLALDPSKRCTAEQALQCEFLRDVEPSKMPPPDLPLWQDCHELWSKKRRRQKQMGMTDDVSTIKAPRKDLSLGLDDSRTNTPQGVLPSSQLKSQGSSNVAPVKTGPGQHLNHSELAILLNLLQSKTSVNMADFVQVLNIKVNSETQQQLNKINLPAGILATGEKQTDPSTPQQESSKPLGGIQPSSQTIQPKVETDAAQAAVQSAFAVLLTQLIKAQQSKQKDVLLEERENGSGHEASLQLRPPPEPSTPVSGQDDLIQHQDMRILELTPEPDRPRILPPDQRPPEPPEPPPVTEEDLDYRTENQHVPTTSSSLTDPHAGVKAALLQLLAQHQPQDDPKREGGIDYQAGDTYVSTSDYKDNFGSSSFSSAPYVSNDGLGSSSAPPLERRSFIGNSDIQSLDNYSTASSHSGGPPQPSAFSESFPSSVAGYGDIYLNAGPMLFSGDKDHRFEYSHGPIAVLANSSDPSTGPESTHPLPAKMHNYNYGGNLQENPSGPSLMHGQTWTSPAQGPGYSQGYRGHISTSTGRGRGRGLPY

The target in series [19] is Testis-specific serine/threonine-protein kinase 2 (Homo sapiens) (UniProt Q96PF2). Put plainly: Inhibition of recombinant full-length human TSSK2 at 1 uM assessed as residual activity at 1 uM using KKKVSRSGLYRSPSMPENLNRPR as substrate measured after 40 mins in presence of [gamma33P]ATP by scintillation counting method relative to control.
For series [20], the target named is Serine/threonine-protein kinase SIK2 (Homo sapiens) (UniProt Q9H0K1). Put plainly: Inhibition of recombinant human SIK2 (1 to 276 residues) assessed as residual activity at 1 uM using KKKVSRSGLYRSPSMPENLNRPR as substrate measured after 40 mins in presence of [gamma33P]ATP by scintillation counting method relative to control.
Chain of Serine/threonine-protein kinase SIK2 (Homo sapiens) (Q9H0K1 whole entry, looked up, the tested form may be a part): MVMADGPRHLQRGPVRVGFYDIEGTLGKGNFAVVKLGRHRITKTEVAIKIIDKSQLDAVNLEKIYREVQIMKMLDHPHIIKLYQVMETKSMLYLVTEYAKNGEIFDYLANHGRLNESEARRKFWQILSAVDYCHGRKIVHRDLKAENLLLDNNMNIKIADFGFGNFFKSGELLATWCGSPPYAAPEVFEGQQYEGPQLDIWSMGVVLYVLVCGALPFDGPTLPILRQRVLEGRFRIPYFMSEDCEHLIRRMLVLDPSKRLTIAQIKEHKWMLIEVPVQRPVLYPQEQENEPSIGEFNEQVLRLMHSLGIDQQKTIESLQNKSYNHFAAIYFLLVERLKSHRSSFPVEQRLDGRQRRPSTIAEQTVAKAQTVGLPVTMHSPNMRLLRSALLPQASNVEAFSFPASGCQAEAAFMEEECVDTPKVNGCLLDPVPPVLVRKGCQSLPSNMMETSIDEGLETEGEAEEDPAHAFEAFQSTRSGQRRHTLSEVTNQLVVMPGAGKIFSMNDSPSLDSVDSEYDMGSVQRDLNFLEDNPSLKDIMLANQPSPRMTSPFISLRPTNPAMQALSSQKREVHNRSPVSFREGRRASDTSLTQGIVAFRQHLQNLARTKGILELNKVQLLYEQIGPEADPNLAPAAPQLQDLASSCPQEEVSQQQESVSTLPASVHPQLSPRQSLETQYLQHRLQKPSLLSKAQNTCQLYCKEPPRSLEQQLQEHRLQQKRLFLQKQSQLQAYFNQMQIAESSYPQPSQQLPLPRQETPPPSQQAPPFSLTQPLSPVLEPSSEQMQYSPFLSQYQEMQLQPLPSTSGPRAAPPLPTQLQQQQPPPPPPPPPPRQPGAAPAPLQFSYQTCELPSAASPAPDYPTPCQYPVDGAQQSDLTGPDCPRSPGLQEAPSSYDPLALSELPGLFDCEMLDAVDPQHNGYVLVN

Take `N=C1NC(=O)/C(=C\c2ccc(-c3cccc([N+](=O)[O-])c3)o2)S1`: the Activity in [1] was found to be 85%; in [2], 94%; in series [3] it was 100%; in series [4], 102%; in series [5], 103%; in series [7] it was 97%. Besides, the Activity in [8] turned out to be 101%; in [9], 99%; in series [10], 75%; in series [11], 61%; in series [12], 99%; in series [13], 102%. Also, the Activity in series [14] is 105%; in series [15], 93%; in series [16], 105%; in series [17], 107%; in series [18], 102%; in series [19], 108%. For the same molecule, the Activity in series [20] was determined as 99%. For the same molecule, the activity at 40 min, 1 µM in [6] amounted to 17%.
For `C=CCOC(=O)c1cc(-c2ccc(/C=C3/NC(=S)NC3=O)o2)ccc1Cl`, the Activity in series [1] was found to be 91%; in series [2] it was 88%; in series [3] it was 92%; in series [4], 104%; in series [5], 90%; in series [7], 96%. Moreover, the Activity in series [8] is 103%; in series [9] it was 91%; in [10], 103%; in series [11], 90%; in series [12], 90%; in [13] it was 104%. The Activity in [14] came to 104%; in [15] it was 76%; in [16], 111%; in [17], 104%; in series [18], 96%; in series [19], 102%. Besides, the Activity in series [20] was found to be 104%. In addition, the activity at 40 min, 1 µM in series [6] turned out to be 31%.
